The values below come from US9169217B2, “Arylalkyl esters of 4-amino-6-(substituted phenyl)-picolinates and 6-amino-2-(substituted phenyl)-pyrimidinecarboxylates and their use as selective herbicides for crops” (Dow AgroSciences LLC, priority 2011, dated 2015).

For data set [1], the system named is Brachiaria platyphylla (GRISEB.) NASH (broadleaf signalgrass). The data set is described as follows: Postemergence foliar-applied herbicidal activity in direct seeded rice (Example 16). Format: in vivo. The conditions noted are these: BRAPP, probit analysis; for GR50: 50% growth reduction; for GR80: 80% growth reduction; for GR90: 90% growth reduction. In short, it runs like this:
(§1)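 Greenhouse plants at 2nd–3rd true leaf stage (10–17 d, ~29/26 °C, 14-h photoperiod) sprayed postemergence with ester forms in acetone–DMSO plus 1.25% crop oil concentrate at 187 L/ha. Visual injury scored 0–100% versus untreated plants after 3 weeks; GR50/GR80 derived by probit analysis.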

Data set [2] concerns Cyperus difformis L. (small-flower flatsedge). The description is as above. The conditions noted are these: post-emergence, 504 h, read-out: Visual Injury (%) CYPDI. Format: in vivo. In short, it runs like this: as §1
Data set [3] relates to Echinochloa crus-galli (L.) P.BEAUV. (barnyardgrass). The description is as above. Type of data set: in vivo. The conditions noted are these: ECHCG, probit analysis; for GR50: 50% growth reduction; for GR80: 80% growth reduction; for GR90: 90% growth reduction. The gist of the method:
as §1

Data set [4] relates to Polygonum pensylvanicum L. (Pennsylvania smartweed). Described as above. Format: in vivo. The conditions noted are these: POLPY, probit analysis; for GR50: 50% growth reduction; for GR80: 80% growth reduction; for GR90: 90% growth reduction. The gist of the method: as §1
The test system of data set [5] is Scirpus juncoides ROXB. (Japanese bulrush). Described as above. Format: in vivo. The conditions noted are these: Schoenoplectiella juncoides, post-emergence, 504 h, read-out: Visual Injury (%) SCPJU. The gist of the method:
as §1

For data set [6], the system named is Cyperus iria L. (rice flatsedge). The data set is described as above. Format: in vivo. The conditions noted are these: rice cropping systems, 8.75 g ae/ha, 21 DAA, may represent multiple trials. In short, it runs like this: as §1
Setting [7] is: rice cropping systems, foliar-applied, 8.75 g ae/ha, 21 DAA, may represent multiple trials.

Like-named read-outs stand apart in the source and are kept apart here.

In the case of `COC(=O)c1nc(-c2ccc(Cl)c(OC)c2F)c(F)c(N)c1Cl` [E, methyl 4-amino-3-chloro-6-(4-chloro-2-fluoro-3-methoxyphenyl)-5-fluoropicolinate, reference compound], the GR50 in data set [1] was under 4.38 g ae/ha; in data set [3], 3.7 g ae/ha; in data set [4], 30.7 g ae/ha. Moreover, the GR80 is 22.7 g ae/ha in data set [1], 17.1 g ae/ha in data set [3] and over 70 g ae/ha in data set [4]. Moreover, the GR90 was 84.3 g ae/ha in data set [1], 38.1 g ae/ha in data set [3] and over 70 g ae/ha in data set [4]. Also, the pest or weed control at 8.75 g/ha came to 89% in data set [2] (setting [7]) and 61% in data set [5] (setting [7]).
In the case of `COC(=O)c1nc(-c2ccc(C3CC3)cc2)c(F)c(N)c1Cl` [Compound B, methyl 4-amino-3-chloro-6-(4-cyclopropylphenyl)-5-fluoropicolinate], the melting point (in general, the temperature of the solid-liquid transition) was in the range of 116 to 119 °C. Besides, the “Visual Injury (%) CYPIR” value in data set [6] was determined as 60%.
Turning to `Nc1c(F)c(-c2ccc(C3CC3)cc2)nc(C(=O)OCc2ccccc2)c1Cl` [Compound 42, benzyl 4-amino-3-chloro-6-(4-cyclopropylphenyl)-5-fluoropicolinate], in data set [6], the “Visual Injury (%) CYPIR” value came out at 100%.
On to `COc1c(Cl)ccc(-c2cc(N)c(Cl)c(C(=O)OCc3ccccc3)n2)c1F` [Compound 39], for which the melting point was 90 to 91.5 °C.
Consider `COc1c(Cl)ccc(-c2nc(C(=O)OCc3ccccc3)c(Cl)c(N)c2F)c1F` [Compound 1, benzyl 4-amino-3-chloro-6-(4-chloro-2-fluoro-3-methoxyphenyl)-5-fluoropicolinate], for which the values for the GR50 in data set [1], in data set [3] and in data set [4] were under 4.38 g ae/ha, under 4.38 g ae/ha and under 8.75 g ae/ha, respectively. Further, the GR80 is given as 9.9 g ae/ha in data set [1], under 4.38 g ae/ha in data set [3] and 19.7 g ae/ha in data set [4]. For the same molecule, the GR90 in data set [1] is reported as 26.0 g ae/ha; in data set [3], 6.1 g ae/ha; in data set [4] it was 46.7 g ae/ha. In addition, the values for the pest or weed control at 8.75 g/ha in data set [2] and in data set [5] were 100% and 93%, respectively.
